Measured values as given in patent US20230391772A1, “METHODS AND COMPOSITIONS FOR TARGETED PROTEIN DEGRADATION” (Ranok Therapeutics (Hangzhou) Co. Ltd., priority 2020, published 2023).

Legend:
HSP90a protein = target: T1, HSP90a protein (Homo sapiens, UniProt P07900); assay: HSP90α-binding fluorescent polarization (FP) assay, BODIPY-labeled RNK04010 probe; settings: FP competition with RNK04010 (BODIPY-labeled), 5 nM, 300 min at 25° C.
T1 construct: purchased BPS Bioscience 50298
How it was run: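 Test compounds (2.5-fold serial dilution, 20 μM to 5.2 nM) competed with a fluorescent tracer for N-terminal HSP90a, with fluorescence polarization as the read-out. FITC-geldanamycin tracer was used at 5 nM final with 120 min incubation at 25° C; BODIPY-labeled RNK04010 was used at 5 nM final with 300 min incubation.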

[1] = tested on: MIA PaCa-2 human pancreatic carcinoma; assay: MIA PaCa-2 CCK-8 proliferation assay; assay type: cell-based; settings: Homo sapiens, MIA PaCa-2, 72 h, MIA PaCa-2 cells
How it was run: (§1)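 Three KRAS(G12C) lines are used, MIA PaCa-2 at two mutant copies and the NSCLC lines NCI-H358 and NCI-H23 at one. Each compound is titrated 3-fold from 20 μM to 1.02 nM, and proliferation is scored by CCK-8.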

[2] = tested on: NCI-H23 human non-small cell lung cancer; assay: NCI-H23 CCK-8 proliferation assay; assay type: cell-based; settings: NCI-H23 cells, 72 hr
Procedure: The following cancer cell lines were employed: BT-474 human breast carcinoma (ATCC, #HTB-20); MIA PaCa-2 human pancreatic carcinoma [2 copies KRAS(G12C)](ATCC, #CRL-1420); NCI-H23 human non-small cell lung cancer [1 copy KRAS(G12C)](ATCC, #CRL-5800); NCI-H358 human non-small cell lung cancer [1 copy KRAS(G12C)](ATCC, #CRL-5807); LU65A human lung carcinoma (Pharmaron, Beijing, China). Cell lines were cultured essentially according to ATCC and Pharmaron recommendations.
Cancer Cell Line Proliferation (CCK-8) Assays
3-fold serial dilutions of each test compound were prepared ranging from 20 μM to 1.02 nM.
% Inhibition=100−(D−B)/(S−B)*100%. • S: Absorbance of cells treated with DMSO • D: Absorbance of compound-treated cells • B: Absorbance of medium with DMSO without cells

[3] = tested on: NCI-H358 human non-small cell lung cancer; assay: NCI-H358 CCK-8 proliferation assay; assay type: cell-based; settings: NCI-H358 cells, 72 hr
How it was run: as §1

| IC50 (HSP90a protein) | EC50 [1] | EC50 [2] | EC50 [3] | Structure (SMILES) |
| --- | --- | --- | --- | --- |
| 0.1 to 1 µM | 0.1 to 1 µM | 0.1 to 1 µM | < 0.1 µM | CCC(=O)N1CCN(c2nc(NCCC(=O)N3CCC(CN4CCN(Cc5ccc(-n6c(C(=O)NC7(C)CC7)nnc6-c6cc(CC)c(O)cc6O)cc5)CC4)CC3)nc3c2CCN(c2cc(O)cc4ccccc24)C3)CC1 [Compound 120, 5-(5-ethyl-2,4-dihydroxyphenyl)-4-(4-((4-((1-(3-((7-(3-hydroxynaphthalen-1-yl)-4-(4-propionylpiperazin-1-yl)-5,6,7,8-tetrahydropyrido[3,4-d]pyrimidin-2-yl)amino)propanoyl)piperidin-4-yl)methyl)piperazin-1-yl)methyl)phenyl)-N-(1-methylcyclopropyl)-4H-1,2,4-triazole-3-carboxamide, trifluoroacetic acid] |
| 0.1 to 1 µM | 0.1 to 1 µM | 0.1 to 1 µM | 0.1 to 1 µM | CC(=O)N1CCN(c2nc(NCCC(=O)N3CCC(Cc4ccc(CN(C)Cc5ccc(-n6c(C(=O)NCC(F)(F)F)nnc6-c6cc(C(C)C)c(O)cc6O)cc5)cc4)CC3)nc3c2CCN(c2cc(O)cc4ccccc24)C3)CC1 [Compound 112, 4-(4-(((4-((1-(3-((4-(4-acetylpiperazin-1-yl)-7-(3-hydroxynaphthalen-1-yl)-5,6,7,8-tetrahydropyrido[3,4-d]pyrimidin-2-yl)amino)propanoyl)piperidin-4-yl)methyl)benzyl)(methyl)amino)methyl)phenyl)-5-(2,4-dihydroxy-5-isopropylphenyl)-N-(2,2,2-trifluoroethyl)-4H-1,2,4-triazole-3-carboxamide, trifluoroacetic acid] |
| < 0.1 µM | – | > 1 µM | 0.1 to 1 µM | CCc1cc(-c2nnc(C(N)=O)n2-c2ccc(CN3CCN(CC4CCN(C(=O)CCNc5nc6c(c(N7CCN(C(C)=O)CC7)n5)CCN(c5cc(O)cc7ccccc57)C6)CC4)CC3)cc2)c(O)cc1O [Compound 69, 4-(4-((4-((1-(3-((4-(4-acetylpiperazin-1-yl)-7-(3-hydroxynaphthalen-1-yl)-5,6,7,8-tetrahydropyrido[3,4-d]pyrimidin-2-yl)amino)propanoyl)piperidin-4-yl)methyl)piperazin-1-yl)methyl)phenyl)-5-(5-ethyl-2,4-dihydroxyphenyl)-4H-1,2,4-triazole-3-carboxamide, trifluoroacetic acid] |
| 0.1 to 1 µM | – | 0.1 to 1 µM | 0.1 to 1 µM | C=CC(=O)N1CCN(c2nc(NCCC(=O)NCCc3ccc(CN4CCC(Cc5ccc(-n6c(C(=O)NCC(F)(F)F)nnc6-c6cc(C(C)C)c(O)cc6O)cc5)CC4)cc3)nc3c2CCN(c2cccc4ccccc24)C3)C[C@H]1CC#N [Compound 108, (R)-4-(4-((1-(4-(2-(3-((4-(4-acryloyl-3-(cyanomethyl)piperazin-1-yl)-7-(naphthalen-1-yl)-5,6,7,8-tetrahydropyrido[3,4-d]pyrimidin-2-yl)amino)propanamido)ethyl)benzyl)piperidin-4-yl)methyl)phenyl)-5-(2,4-dihydroxy-5-isopropylphenyl)-N-(2,2,2-trifluoroethyl)-4H-1,2,4-triazole-3-carboxamide, trifluoroacetic acid, trifluoroacetic acid, trifluoroacetic acid, trifluoroacetic …] |
| 0.1 to 1 µM | – | 0.1 to 1 µM | 0.1 to 1 µM | C=CC(=O)N1CCN(c2nc(NCCC(=O)N[C@H](C)c3ccc(CN4CCC(Cc5ccc(-n6c(O)nnc6-c6cc(C(C)C)c(O)cc6O)cc5)CC4)cc3)nc3c2CCN(c2cc(O)cc4ccccc24)C3)CC1 [Compound 18, (R)-3-((4-(4-acryloylpiperazin-1-yl)-7-(3-hydroxynaphthalen-1-yl)-5,6,7,8-tetrahydropyrido[3,4-d]pyrimidin-2-yl)amino)-N-(1-(4-((4-(4-(3-(2,4-dihydroxy-5-isopropylphenyl)-5-hydroxy-4H-1,2,4-triazol-4-yl)benzyl)piperidin-1-yl)methyl)phenyl)ethyl)propanamide, trifluoroacetic acid] |
| 0.1 to 1 µM | – | 0.1 to 1 µM | 0.1 to 1 µM | C=CC(=O)N1CCN(c2nc(NCCC(=O)N3CCC(Cc4ccc(CN(C)Cc5ccc(-n6c(O)nnc6-c6cc(C(C)C)c(O)cc6O)cc5)cc4)CC3)nc3c2CCN(c2cc(O)cc4ccccc24)C3)CC1 [Compound 19, 1-(4-(2-((3-(4-(4-(((4-(3-(2,4-dihydroxy-5-isopropylphenyl)-5-hydroxy-4H-1,2,4-triazol-4-yl)benzyl)(methyl)amino)methyl)benzyl)piperidin-1-yl)-3-oxopropyl)amino)-7-(3-hydroxynaphthalen-1-yl)-5,6,7,8-tetrahydropyrido[3,4-d]pyrimidin-4-yl)piperazin-1-yl)prop-2-en-1-one, trifluoroacetic acid] |
| 0.1 to 1 µM | – | > 1 µM | 0.1 to 1 µM | CCCc1cc(-c2nnc(O)n2-c2ccc(CN3CCN(CC4CCN(C(=O)CCNc5nc6c(c(N7CCN(C(C)=O)CC7)n5)CCN(c5cc(O)cc7ccccc57)C6)CC4)CC3)cc2)c(O)cc1O [Compound 59, 3-((4-(4-acetylpiperazin-1-yl)-7-(3-hydroxynaphthalen-1-yl)-5,6,7,8-tetrahydropyrido[3,4-d]pyrimidin-2-yl)amino)-1-(4-((4-(4-(3-(2,4-dihydroxy-5-propylphenyl)-5-hydroxy-4H-1,2,4-triazol-4-yl)benzyl)piperazin-1-yl)methyl)piperidin-1-yl)propan-1-one, trifluoroacetic acid] |
| 0.1 to 1 µM | – | 0.1 to 1 µM | 0.1 to 1 µM | C=CC(=O)N1CCN(c2nc(NCCC(=O)N3CCN(Cc4ccc(CN(C)Cc5ccc(-n6c(C(=O)NCC(F)(F)F)nnc6-c6cc(C(C)C)c(O)cc6O)cc5)cc4)CC3)nc3c2CCN(c2cccc4ccccc24)C3)C[C@H]1CC#N [Compound 109, (R)-4-(4-(((4-((4-(3-((4-(4-acryloyl-3-(cyanomethyl)piperazin-1-yl)-7-(naphthalen-1-yl)-5,6,7,8-tetrahydropyrido[3,4-d]pyrimidin-2-yl)amino)propanoyl)piperazin-1-yl)methyl)benzyl)(methyl)amino)methyl)phenyl)-5-(2,4-dihydroxy-5-isopropylphenyl)-N-(2,2,2-trifluoroethyl)-4H-1,2,4-triazole-3-carboxamide, trifluoroacetic acid] |
| < 0.1 µM | – | 0.1 to 1 µM | 0.1 to 1 µM | C=CC(=O)N1CCN(c2nc(NCCC(=O)N3CCC(CN4CCN(Cc5ccc(-n6c(O)nnc6-c6cc(C(C)C)c(O)cc6O)cc5)CC4)CC3)nc3c2CCN(c2cccc4ccccc24)C3)C[C@H]1CC#N [Compound 78, (R)-2-(1-acryloyl-4-(2-((3-(4-((4-(4-(3-(2,4-dihydroxy-5-isopropylphenyl)-5-hydroxy-4H-1,2,4-triazol-4-yl)benzyl)piperazin-1-yl)methyl)piperidin-1-yl)-3-oxopropyl)amino)-7-(naphthalen-1-yl)-5,6,7,8-tetrahydropyrido[3,4-d]pyrimidin-4-yl)piperazin-2-yl)acetonitrile] |
| 0.1 to 1 µM | – | 0.1 to 1 µM | 0.1 to 1 µM | CCC(=O)N1CCN(c2nc(NCCC(=O)N3CCC(CN4CCN(Cc5ccc(-n6c(C(=O)NC(C)C(F)(F)F)nnc6-c6cc(CC)c(O)cc6O)cc5)CC4)CC3)nc3c2CCN(c2cc(O)cc4ccccc24)C3)CC1 (centres unmarked) [Compound 119, 5-(5-ethyl-2,4-dihydroxyphenyl)-4-(4-((4-((1-(3-((7-(3-hydroxynaphthalen-1-yl)-4-(4-propionylpiperazin-1-yl)-5,6,7,8-tetrahydropyrido[3,4-d]pyrimidin-2-yl)amino)propanoyl)piperidin-4-yl)methyl)piperazin-1-yl)methyl)phenyl)-N-(1,1,1-trifluoropropan-2-yl)-4H-1,2,4-triazole-3-carboxamide, trifluoroacetic acid] |
| < 0.1 µM | – | 0.1 to 1 µM | 0.1 to 1 µM | C=CC(=O)N1CCN(c2nc(NCCC(=O)N3CCC(CN4CCN(Cc5ccc(-n6c(C(N)=O)nnc6-c6cc(CC)c(O)cc6O)cc5)CC4)CC3)nc3c2CCN(c2cccc4ccccc24)C3)C[C@H]1CC#N [Compound 98, (R)-4-(4-((4-((1-(3-((4-(4-acryloyl-3-(cyanomethyl)piperazin-1-yl)-7-(naphthalen-1-yl)-5,6,7,8-tetrahydropyrido[3,4-d]pyrimidin-2-yl)amino)propanoyl)piperidin-4-yl)methyl)piperazin-1-yl)methyl)phenyl)-5-(5-ethyl-2,4-dihydroxyphenyl)-4H-1,2,4-triazole-3-carboxamide, trifluoroacetic acid] |
